Assay results from paper PMC8910009, “Identification of Novel and Potent Indole-Based Benzenesulfonamides as Selective Human Carbonic Anhydrase II Inhibitors: Design, Synthesis, In Vitro, and In Silico Studies” (International Journal of Molecular Sciences, 2022).

Key:
hCA I = hCA I (Homo sapiens, UniProt P00915); assay: stopped flow CO2 hydrase assay, hCA I
Experimental: (§1) The tested CA panel was comprised of the two ubiquitously expressed cytosolic hCA I and II isoforms, along with the two tumor-related transmembrane hCA IX and XII isoforms. The activity of the synthesized hybrids was reported as Ki (inhibition constant) to assess their binding affinity. […] The inhibitor and enzyme solutions were first preincubated together for 15 min at room temperature to enable for the generation of the E–I complex. Photophysics stopped-flow instrument was used to measure the CA-catalyzed CO2 hydration activity. Phenol red (at a concentration of 0.2 mM) was added as an indicator after a period of 10–100 s in the CA-catalyzed CO2 hydration reaction at an absorbance maximum of 557 nm, with 20 mM Hepes (pH = 7.4) and 10 mM NaClO4 (to maintain constant ionic strength) [30]. […] In the initial 5–10% of the reaction, at least six traces were examined to determine the initial velocity for each inhibitor. Similarly, the total measured rates were used to measure the uncatalyzed rates [32]. Distilled–deionized water was used in the preparation of the Stock inhibitor solutions (10 mM), as well as dilutions up to 0.01 nM. The inhibition constants were measured utilizing PRISM 3, whereas the Lineweaver–Burk plots were used to measure the kinetic parameters which comprised the mean of at least three separate measurements [33, 34].

hCA II = hCA II (Homo sapiens, UniProt P00918); assay: stopped flow CO2 hydrase assay, hCA II
Experimental: as §1

hCA IX = hCA IX (Homo sapiens, UniProt Q16790); assay: stopped flow CO2 hydrase assay, hCA IX
Experimental: as §1

hCA XII = hCA XII (Homo sapiens, UniProt O43570); assay: stopped flow CO2 hydrase assay, hCA XII
Sequence of hCA XII (O43570 25-354): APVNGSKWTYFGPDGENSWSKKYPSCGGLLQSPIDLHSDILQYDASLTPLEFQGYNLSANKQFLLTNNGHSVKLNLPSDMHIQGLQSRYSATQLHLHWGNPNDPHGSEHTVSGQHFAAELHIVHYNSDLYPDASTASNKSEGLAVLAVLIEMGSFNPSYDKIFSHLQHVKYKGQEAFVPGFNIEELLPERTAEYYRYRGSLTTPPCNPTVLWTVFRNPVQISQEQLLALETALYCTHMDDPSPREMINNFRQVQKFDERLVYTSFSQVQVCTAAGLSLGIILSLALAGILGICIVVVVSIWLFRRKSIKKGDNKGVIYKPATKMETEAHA
Experimental: as §1

Sequence of hCA I (P00915 whole entry): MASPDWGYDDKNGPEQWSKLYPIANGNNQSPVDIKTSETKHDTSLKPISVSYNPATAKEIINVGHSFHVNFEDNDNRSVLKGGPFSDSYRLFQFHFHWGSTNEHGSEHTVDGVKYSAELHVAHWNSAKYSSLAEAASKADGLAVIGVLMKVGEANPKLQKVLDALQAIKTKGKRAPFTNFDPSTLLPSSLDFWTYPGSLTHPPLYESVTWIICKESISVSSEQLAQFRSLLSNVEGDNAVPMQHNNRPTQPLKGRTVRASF

Compound	Ki (hCA I) [nM]	Ki (hCA II) [nM]	Ki (hCA IX) [nM]	Ki (hCA XII) [nM]	selectivity for hCA II over hCA I (hCA II; ratio of Ki values) [fold]	selectivity for hCA II over hCA IX (hCA II; ratio of Ki values) [fold]	selectivity for hCA II over hCA XII (hCA II; ratio of Ki values) [fold]
NS(=O)(=O)c1cccc(NC(=O)c2ccc3[nH]ccc3c2)c1 [Compound 2e, N-(3-sulfamoylphenyl)-1H-indole-5-carboxamide]	5570	45.5	766	90.9			
NS(=O)(=O)c1ccc(C(=O)Nc2ccc3[nH]ccc3c2)cc1 [Compound 2o, N-(1H-indol-5-yl)-4-sulfamoylbenzamide]	56.6	7.5	170	66.9			
NS(=O)(=O)c1ccccc1NC(=O)c1ccc2[nH]ccc2c1 [Compound 2i, N-(2-sulfamoylphenyl)-1H-indole-5-carboxamide]	7450	71.9	635	89.4			
NS(=O)(=O)c1cccc(NC(=O)CCc2c[nH]c3ccccc23)c1 [Compound 2a, 3-(1H-indol-3-yl)-N-(3-sulfamoylphenyl)propanamide]	79.8	5.9	206	54.2	13	34	9
NS(=O)(=O)c1ccc(O)c(NC(=O)c2ccc3cc[nH]c3c2)c1 [Compound 2l, N-(2-hydroxy-5-sulfamoylphenyl)-1H-indole-6-carboxamide]	4280	682	423	73.7			
NS(=O)(=O)c1ccc(CCNC(=O)c2ccc3cc[nH]c3c2)cc1 [Compound 2m, N-(4-sulfamoylphenethyl)-1H-indole-6-carboxamide]	253	38.8	278	85.1			

Further molecules by falling Ki (hCA I), results first:

Ki (hCA I) [nM]	Ki (hCA II) [nM]	Ki (hCA IX) [nM]	Ki (hCA XII) [nM]	selectivity for hCA II over hCA I (hCA II; ratio of Ki values) [fold]	selectivity for hCA II over hCA IX (hCA II; ratio of Ki values) [fold]	selectivity for hCA II over hCA XII (hCA II; ratio of Ki values) [fold]	Compound
7510	670	487	36.9				NS(=O)(=O)c1ccccc1NC(=O)c1ccc2cc[nH]c2c1 [Compound 2n, N-(2-sulfamoylphenyl)-1H-indole-6-carboxamide]
5400	94.8	654	40.5				NS(=O)(=O)c1cccc(NC(=O)c2ccc3cc[nH]c3c2)c1 [Compound 2j, N-(3-sulfamoylphenyl)-1H-indole-6-carboxamide]
4770	680	280	85.3				NS(=O)(=O)c1ccc(O)c(NC(=O)c2ccc3[nH]ccc3c2)c1 [Compound 2g, N-(2-hydroxy-5-sulfamoylphenyl)-1H-indole-5-carboxamide]
4660	833	428	83.8				NS(=O)(=O)c1ccc(NC(=O)c2ccc3cc[nH]c3c2)cc1 [Compound 2k, N-(4-sulfamoylphenyl)-1H-indole-6-carboxamide]
3110	16	165	257				NS(=O)(=O)c1ccc(NC(=O)c2ccc3[nH]ccc3c2)cc1 [Compound 2f, N-(4-sulfamoylphenyl)-1H-indole-5-carboxamide]
2800	7.3	286	85.1				NS(=O)(=O)c1ccc(O)c(NC(=O)CCc2c[nH]c3ccccc23)c1 [Compound 2b, N-(2-hydroxy-5-sulfamoylphenyl)-3-(1H-indol-3-yl)propanamide]
554	8.6	240	236				NS(=O)(=O)c1ccc(CCNC(=O)c2ccc3[nH]ccc3c2)cc1 [Compound 2h, N-(4-sulfamoylphenethyl)-1H-indole-5-carboxamide]
217	9	222	36.9				NS(=O)(=O)c1ccc(CCNC(=O)CCc2c[nH]c3ccccc23)cc1 [Compound 2c, 3-(1H-indol-3-yl)-N-(4-sulfamoylphenethyl)propanamide]
97.6	7.1	166	42.2				NS(=O)(=O)c1ccc(NC(=O)CCc2c[nH]c3ccccc23)cc1 [Compound 2d, 3-(1H-indol-3-yl)-N-(4-sulfamoylphenyl)propanamide]
